Consider 31 molecules from US20260258064A1 (SIRONAX LTD., priority 2023, published 2026).

The structures appear in SMILES notation.

The target in this test is T1, SARM1 (50-724) (Homo sapiens, UniProt Q6SZW1).
T1 construct: Purified SARM1 (50-724) with a final concentration of 2 nM was pre-incubated with a test compound
T1 sequence (Q6SZW1 50-724): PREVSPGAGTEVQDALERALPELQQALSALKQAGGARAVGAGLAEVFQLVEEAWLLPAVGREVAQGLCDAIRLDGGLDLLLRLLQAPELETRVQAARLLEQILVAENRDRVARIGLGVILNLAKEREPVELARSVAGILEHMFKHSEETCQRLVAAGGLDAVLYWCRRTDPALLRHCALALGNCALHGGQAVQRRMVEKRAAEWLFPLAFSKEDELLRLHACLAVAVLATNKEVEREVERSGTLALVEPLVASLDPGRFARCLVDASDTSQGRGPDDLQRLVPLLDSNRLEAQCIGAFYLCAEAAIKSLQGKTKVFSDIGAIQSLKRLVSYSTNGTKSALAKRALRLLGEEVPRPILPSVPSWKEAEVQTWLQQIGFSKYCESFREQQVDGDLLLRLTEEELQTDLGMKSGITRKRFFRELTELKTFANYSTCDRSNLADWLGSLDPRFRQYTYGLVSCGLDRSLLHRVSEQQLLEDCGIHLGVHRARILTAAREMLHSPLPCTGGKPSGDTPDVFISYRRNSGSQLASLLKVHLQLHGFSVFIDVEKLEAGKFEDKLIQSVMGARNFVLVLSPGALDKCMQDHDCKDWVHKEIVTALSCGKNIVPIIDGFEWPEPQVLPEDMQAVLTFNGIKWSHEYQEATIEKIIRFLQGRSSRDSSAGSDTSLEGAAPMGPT
Description: SARM1 (50-724) enzymatic assay (LC-MS/MS). The format is biochemical. The settings on record: Purified SARM1 (50-724) 2 nM, NMN as activator, NAD+ as substrate, 1 h at room temperature, read-out: IC50 (SARM1 inhibitory activity). In short, it runs like this:
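Human SARM1 (50-724), 2 nM, pre-incubated 15 min at room temperature with compound in Dulbecco's PBS. Reaction started with 200 µM NMN (activator) plus […] NAD^+ substrate, run 1 h at room temperature, quenched with 70% acetonitrile. Turnover quantified by LC-MS/MS; IC50 reported.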

The term IC50 denotes the concentration that gives 50% inhibition. `NC(=O)c1cc(-c2nc3cc(C(F)(F)F)ccc3[nH]2)n(-c2cccc(F)c2Cl)n1` [Compound 397, 1-(2-chloro-3-fluorophenyl)-5-(5-(trifluoromethyl)-1H-benzo[d]imidazol-2-yl)-1H-pyrazole-3-carboxamide]: the concentration for half-maximal inhibition (IC50) is at most 100 nM.
With `Cn1cc(OC(F)(F)F)c(-n2cnnc2-c2nc3cc(C4CC4)cc(F)c3[nH]2)cc1=O` [Compound 353, 4-(3-(5-cyclopropyl-7-fluoro-1H-benzo[d]imidazol-2-yl)-4H-1,2,4-triazol-4-yl)-1-methyl-5-(trifluoromethoxy)pyridin-2(1H)-one] the figure was at most 100 nM; with `Cn1nc(-n2cnnc2-c2nc3cc(C(F)(F)F)ccc3[nH]2)c(Cl)c1Cl` [Example 53, 2-(4-(4,5-Dichloro-1-methyl-1H-pyrazol-3-yl)-4H-1,2,4-triazol-3-yl)-5-(trifluoromethyl)-1H-benzo[d]imidazole], at most 100 nM.
With `Fc1cc(OC(F)F)cc2nc(-c3nncn3-c3cnccc3C(F)(F)F)[nH]c12` [Compound 293, 5-(difluoromethoxy)-7-fluoro-2-(4-(4-(trifluoromethyl)pyridin-3-yl)-4H-1,2,4-triazol-3-yl)-1H-benzo[d]imidazole] the figure was at most 100 nM.
As for `O=c1ccc(-c2cccc(Cl)c2Cl)c(-c2nc3cc(C(F)(F)F)ccc3[nH]2)[nH]1` [Example 37], the IC50 is above 1000 nM.
Under `CNC(=O)Cc1nnc(-c2nc3cc(C(F)(F)F)ccc3[nH]2)n1-c1cccc(Cl)c1Cl` [Compound 143, 2-(4-(2,3-Dichlorophenyl)-5-(5-(trifluoromethyl)-1H-benzo[d]imidazol-2-yl)-4H-1,2,4-triazol-3-yl)-N-methylacetamide] stands at most 100 nM; under `CS(=O)(=O)Cc1nnc(-c2nc3c(F)c(C(F)(F)F)ccc3[nH]2)n1-c1cccc(F)c1Cl` (single isomer, unassigned) [Compound 197, 2-(4-(2-chloro-3-fluorophenyl)-5-((methylsulfonyl)methyl)-4H-1,2,4-triazol-3-yl)-4-fluoro-5-(trifluoromethyl)-1H-benzo[d]imidazole], at most 100 nM.
For `CC(F)(F)c1cc(F)c2[nH]c(-c3nncn3-c3cnccc3C(F)(F)F)nc2c1` [Compound 468, 6-(1,1-difluoroethyl)-4-fluoro-2-(4-(4-(trifluoromethyl)pyridin-3-yl)-4H-1,2,4-triazol-3-yl)-1H-benzo[d]imidazole], the IC50 is at most 100 nM.
With `FC(F)(F)c1ccc2[nH]c(-c3nnc(OC4COC4)n3-c3cccc(Cl)c3Cl)nc2c1` [Example 117, 2-(4-(2,3-dichlorophenyl)-5-(oxetan-3-yloxy)-4H-1,2,4-triazol-3-yl)-5-(trifluoromethyl)-1H-benzo[d]imidazole] the figure was 100 to 500 nM; with `Clc1cccc(-n2cnnc2-c2nc3cc(-c4cncs4)ccc3[nH]2)c1Cl` [Example 78, 5-(2-(4-(2,3-dichlorophenyl)-4H-1,2,4-triazol-3-yl)-1H-benzo[d]imidazol-5-yl)thiazole], 100 to 500 nM.
Under `NC(=O)c1cc(Cl)c(Cl)c(-n2cnnc2-c2nc3cc(C(F)(F)F)ccc3[nH]2)c1` [Compound 174, 3,4-dichloro-5-(3-(5-(trifluoromethyl)-1H-benzo[d]imidazol-2-yl)-4H-1,2,4-triazol-4-yl)benzamide] stands at most 100 nM; under `Cc1cnc2[nH]c(-c3nncn3-c3cccc(F)c3Cl)nc2n1` [Compound 176, 2-(4-(2-chloro-3-fluorophenyl)-4H-1,2,4-triazol-3-yl)-6-methyl-1H-imidazo[4,5-b]pyrazine], above 1000 nM.
Consider `Cc1ccnc(-n2cnnc2-c2nc3cc(C(F)(F)F)ccc3[nH]2)c1Cl` [Example 66], for which the half-maximal inhibitory concentration (IC50) is at most 100 nM.
Turning to `FC(F)(F)c1ccc2[nH]c(-c3ncncc3-c3cccc(Cl)c3Cl)nc2c1` [Compound 310, 2-(5-(2,3-dichlorophenyl)pyrimidin-4-yl)-5-(trifluoromethyl)-1H-benzo[d]imidazole], the IC50 is above 1000 nM.
On to `Fc1ccc(OC(F)(F)F)c(-n2cnnc2-c2nc3cc(C(F)(F)F)cc(F)c3[nH]2)c1` [Compound 213, 7-fluoro-2-(4-(5-fluoro-2-(trifluoromethoxy)phenyl)-4H-1,2,4-triazol-3-yl)-5-(trifluoromethyl)-1H-benzo[d]imidazole], for which the IC50 is at most 100 nM.
With `FC(F)(F)Oc1cnc(C2CCO2)cc1-n1cnnc1-c1nc2cc(C(F)(F)F)ccc2[nH]1` (stereo not shown) [Compound 294, 2-(4-(2-(oxetan-2-yl)-5-(trifluoromethoxy)pyridin-4-yl)-4H-1,2,4-triazol-3-yl)-5-(trifluoromethyl)-1H-benzo[d]imidazole], the IC50 is at most 100 nM.
Take `O=C1CCCN1Cc1nnc(-c2nc3cc(C(F)(F)F)ccc3[nH]2)n1-c1cccc(F)c1Cl` [Compound 384, 1-((4-(2-chloro-3-fluorophenyl)-5-(5-(trifluoromethyl)-1H-benzo[d]imidazol-2-yl)-4H-1,2,4-triazol-3-yl)methyl)pyrrolidin-2-one]: the IC50 is 500 to 1000 nM.
With `Cc1ccc2[nH]c(-c3cncn3C3CCCC3)nc2c1` [Compound 3, 2-(1-cyclopentyl-1H-imidazol-5-yl)-6-methyl-1H-benzo[d]Imi-dazole] the figure was above 1000 nM; with `N#CC1(c2ccc3[nH]c(-c4nncn4-c4cccc(F)c4Cl)nc3c2)CC12CC2` (stereo not shown) [Compound 229, 1-(2-(4-(2-chloro-3-fluorophenyl)-4H-1,2,4-triazol-3-yl)-1H-benzo[d]imidazol-5-yl)spiro[2.2]pentane-1-carbonitrile], at most 100 nM; with `OCCc1cccc(OC(F)(F)F)c1-n1cnnc1-c1nc2cc(C(F)(F)F)ccc2[nH]1` [Compound 295, 2-(3-(trifluoromethoxy)-2-(3-(5-(trifluoromethyl)-1H-benzo[d]imidazol-2-yl)-4H-1,2,4-triazol-4-yl)phenyl)ethan-1-ol], at most 100 nM.
With `CC(C)(C(N)=O)c1ccc2[nH]c(-c3nncn3-c3cccc(Cl)c3Cl)nc2c1` [Example 107] the figure was at most 100 nM; with `Cc1c(Cl)ccc2[nH]c(-c3nncn3-c3ccc(F)c(F)c3Cl)nc12` [Compound 164, 5-chloro-2-(4-(2-chloro-3,4-difluorophenyl)-4H-1,2,4-triazol-3-yl)-4-methyl-1H-benzo[d]imidazole], at most 100 nM.
Consider `CN(CC(F)F)c1cc(F)c2[nH]c(-c3nncn3-c3cnccc3C(F)(F)F)nc2c1` [Compound 318, N-(2,2-difluoroethyl)-7-fluoro-N-methyl-2-(4-(4-(trifluoromethyl)pyridin-3-yl)-4H-1,2,4-triazol-3-yl)-1H-benzo[d]imidazol-5-amine], for which the 50% inhibitory concentration (IC50) was at most 100 nM.
Turning to `COC(=O)C(C)c1ccc2[nH]c(-c3nncn3-c3cccc(Cl)c3Cl)nc2c1` (stereo not shown) [Example 101, methyl 2-(2-(4-(2,3-dichlorophenyl)-4H-1,2,4-triazol-3-yl)-1H-benzo[d]imidazol-5-yl)propanoate], the IC50 is at most 100 nM.
Under `FC(F)(F)c1ccc2[nH]c(-c3nncn3-c3cnccc3C(F)(F)F)c(C3CCNC3)c2c1` (stereo not shown) [Compound 375, 3-(pyrrolidin-3-yl)-5-(trifluoromethyl)-2-(4-(4-(trifluoromethyl)pyridin-3-yl)-4H-1,2,4-triazol-3-yl)-1H-indole] stands 100 to 500 nM.
With `FC(F)(F)c1ccc2[nH]c(-c3c[nH]nc3-c3cccc(Cl)c3Cl)nc2c1` [Example 61], the IC50 is 500 to 1000 nM.
With `O=S1(=O)CCN(c2ccc(Cl)c(-n3cnnc3-c3nc4cc(C(F)(F)F)ccc4[nH]3)n2)CC1` [Compound 201, 4-(5-chloro-6-(3-(5-(trifluoromethyl)-1H-benzo[d]imidazol-2-yl)-4H-1,2,4-triazol-4-yl)pyridin-2-yl)thiomorpholine 1,1-dioxide] the figure was at most 100 nM; with `Cn1cc(-c2cnccc2C(F)(F)F)c(-c2nc3cc(C(F)(F)F)c(Cl)cc3[nH]2)cc1=O` [Compound 389, 4-(5-chloro-6-(trifluoromethyl)-1H-benzo[d]imidazol-2-yl)-1-methyl-4′-(trifluoromethyl)-[3,3′-bipyridin]-6(1H)-one], 100 to 500 nM.
With `CC(c1ccncc1)c1cc(F)c2[nH]c(-c3nnccc3-c3cnccc3C(F)(F)F)nc2c1` (stereo not shown) [Compound 460, 7-fluoro-5-(1-(pyridin-4-yl)ethyl)-2-(4-(4-(trifluoromethyl)pyridin-3-yl)pyridazin-3-yl)-1H-benzo[d]imidazole] the figure was at most 100 nM.
On to `FC(F)(F)c1ccc2[nH]c(-c3cncnc3-c3cccc(Cl)c3Cl)nc2c1` [Example 38], for which the IC50 fell in the range of 100 to 500 nM.
With `NC(=O)c1nc(Cl)c(-n2cnnc2-c2nc3cc(C(F)(F)F)cc(F)c3[nH]2)s1` [Compound 216, 4-chloro-5-(3-(7-fluoro-5-(trifluoromethyl)-1H-benzo[d]imidazol-2-yl)-4H-1,2,4-triazol-4-yl)thiazole-2-carboxamide] the figure was 100 to 500 nM.
